Measured values: patent publication US20240208953A1, “"Cyclopenta[c]pyrrol Negative Allosteric Modulators of NR2B"” (Novartis AG, priority 2021, published 2024)

Assays:
[1] = target: NR2B (Rattus norvegicus (Rat), UniProt Q00960); assay: NR2B rat cortical neuron calcium influx assay; type: cell-based; conditions: rat cortical neurons, glutamate and glycine stimulated calcium influx
Description: Example 1: NR2B Rat Cortical Neuron Calcium Influx Assay Protocol
Embryonic day 18 timed pregnant Sprague Dawley rats were euthanized according to Institutional Animal Care and Use Committee (IACUC) protocol. After cutting medially through the skin and exposing the uterus and embryos, fetuses were removed and placed in cold Hibernate medium. Each embryo's brain was extracted and cerebral cortices were isolated by removing the midbrain and meninges. The dissected cortices were then dissociated into the neurons using papain dissociation system (Worthington Biochemical Corporation) according the manufacturer's protocol.
Dissociated neurons were counted and plated into 384-well poly-D-lysine coated plates (Corning® BioCoat™) at a density of 20,000 cells/well in 30 μL of Neurobasal/B27 complete medium. Neurons were cultured at 37° C. for 2 days. On the assay day, medium was removed and cells were incubated with 20 μL/well of calcium dye (Calcium 6 Assay Kit, Molecular Devices) suspended in HBSS with 1.8 mM Ca^2+ (Ca-HBSS) according to the manufacturer's instruction.
Compounds of interest from 10 mM stock were serially diluted into 3× of desired concentrations in 1.8 mM Ca-HBSS, and 10 μL were added to the wells. Compound and the neurons were incubated at 37° C. for 2 hours in the dark.
On FDSS7000EX (Hamamatsu Photonics), a fluorescence measuring instrument, 10 μL of 4× ligand solution containing glutamate and glycine made in 1.8 mM Ca^2+-HBSS were added to each well. The fluorescent signals were collected before and after the addition of ligands for a total of 2 minutes. The data were converted to a ratio of the peak fluorescence to the fluorescence at the beginning of the measurement.
Each data point was measured in duplicates. Dose response curves were used to identify IC50 and maximal inhibition values. IC50 represents the concentration in μM of compound at which there is a half-maximal compound effect. Maximal inhibition of a compound is expressed as a percent of the highest inhibition of activity over a no compound control.

[2] = target: P-glycoprotein (P-gp) (Homo sapiens (Human), UniProt P08183); assay: MDCK-MDR1 permeability / efflux assay; type: in vitro ADME; conditions: dog, MDCK-MDR1, pH 7.4, efflux ratio, read-out: MDCK-MDR1 ER
Description: Example 4. Experimental Measurement of Efflux with MDCK-MDR1 Protocol
Cell Culture. MDCK-MDR1 cells were cultured at 37° C. under a 5% CO2 atmosphere, at 95% relative humidity in DMEM containing 10% FBS, penicillin-streptomycin (100 μg/mL), and 2 mM Ala-Gln. Cells were passaged every 3-4 days. For assay purposes, cells were seeded at a density of approximately 265,000 cells/cm^2 of a 96-well Transwell plate (Corning Life Sciences, Acton, MA) and cultured in the same media noted above for a period of 4 days.
Assay. The determination of the apparent permeability (Papp) was performed in both the A→B (apical to basal) and B→A (basal to apical) directions where each compound was assayed in triplicate. The zwitterion bestatin, a poorly permeably compound, was used as marker of monolayer integrity. To initiate the assay, media was aspirated, and the cells and basal chambers were washed three times with Hank's Balanced Salt Solution (HBSS) containing 10 mM HEPES (pH 7.4). Compound test solutions were prepared in triplicate in HBSS containing 10 mM HEPES (pH 7.4) and 0.02% bovine serum albumin (BSA) to a final concentration of 10 μM and centrifuged for 2 min at 4000×g, then applied to the donor compartment at time zero. Additionally, at time zero, a 37° C. solution without test articles (HBSS+10 mM HEPES (pH 7.4) plus 0.02% BSA) was added to the receiver chamber of the Transwell plate. A time zero sample of the donor solution was also sampled for further analysis. The assay was conducted for a period of 120 min at 37° C. without shaking. At the time of assay termination, samples were taken from each donor compartment, and each acceptor compartment of the Transwell plate. To each of the 0 and 120 min samples was added an internal standard solution containing glyburide in water:acetonitrile, 50:50 (v:v). Concentration curves were prepared using a Labcyte Echo in the same matrix noted above. Samples and concentration curve samples were centrifuged for 10 min at 4000×g and subsequently analyzed by mass spectroscopy.
Mass Spectroscopy. Assay samples were loaded onto a RapidFire C4 cartridge by means of a RapidFire autosampler (Agilent, Santa Clara, CA). […] Mass spectroscopy was performed using an AB Sciex AP15500 (Sciex, Frammingham, MA) equipped with a turbo ion spray source. The analyte concentration was calculated from the chromatographic peak area ratio of analyte to internal standard (glibenclamide, m/z 494→169), using Multiquant software V3.0 (Sciex, Framingham, MA).
Calculations. Papp values were determined as
Percent recovery values were determined as:
where VA is the volume of the acceptor (mL), S is the surface area of the membrane, D0 is the donor solution concentration at t=0, D120 is the donor solution concentration at t=120, A120 is the acceptor solution concentration at t=120, and t=time (seconds).
The suitability of a compound for oral dosing and/or for use as a CNS therapeutic is usually conducted by MDCK-MDR1 permeability assay to investigate its drug efflux potential mediated by P-glycoprotein (P-gp). MDCK-MDR1 permeability has been used as a predictor of blood brain barrier permeability in terms of efflux ratio (ER).

Chain of P-glycoprotein (P-gp) (P08183 whole entry): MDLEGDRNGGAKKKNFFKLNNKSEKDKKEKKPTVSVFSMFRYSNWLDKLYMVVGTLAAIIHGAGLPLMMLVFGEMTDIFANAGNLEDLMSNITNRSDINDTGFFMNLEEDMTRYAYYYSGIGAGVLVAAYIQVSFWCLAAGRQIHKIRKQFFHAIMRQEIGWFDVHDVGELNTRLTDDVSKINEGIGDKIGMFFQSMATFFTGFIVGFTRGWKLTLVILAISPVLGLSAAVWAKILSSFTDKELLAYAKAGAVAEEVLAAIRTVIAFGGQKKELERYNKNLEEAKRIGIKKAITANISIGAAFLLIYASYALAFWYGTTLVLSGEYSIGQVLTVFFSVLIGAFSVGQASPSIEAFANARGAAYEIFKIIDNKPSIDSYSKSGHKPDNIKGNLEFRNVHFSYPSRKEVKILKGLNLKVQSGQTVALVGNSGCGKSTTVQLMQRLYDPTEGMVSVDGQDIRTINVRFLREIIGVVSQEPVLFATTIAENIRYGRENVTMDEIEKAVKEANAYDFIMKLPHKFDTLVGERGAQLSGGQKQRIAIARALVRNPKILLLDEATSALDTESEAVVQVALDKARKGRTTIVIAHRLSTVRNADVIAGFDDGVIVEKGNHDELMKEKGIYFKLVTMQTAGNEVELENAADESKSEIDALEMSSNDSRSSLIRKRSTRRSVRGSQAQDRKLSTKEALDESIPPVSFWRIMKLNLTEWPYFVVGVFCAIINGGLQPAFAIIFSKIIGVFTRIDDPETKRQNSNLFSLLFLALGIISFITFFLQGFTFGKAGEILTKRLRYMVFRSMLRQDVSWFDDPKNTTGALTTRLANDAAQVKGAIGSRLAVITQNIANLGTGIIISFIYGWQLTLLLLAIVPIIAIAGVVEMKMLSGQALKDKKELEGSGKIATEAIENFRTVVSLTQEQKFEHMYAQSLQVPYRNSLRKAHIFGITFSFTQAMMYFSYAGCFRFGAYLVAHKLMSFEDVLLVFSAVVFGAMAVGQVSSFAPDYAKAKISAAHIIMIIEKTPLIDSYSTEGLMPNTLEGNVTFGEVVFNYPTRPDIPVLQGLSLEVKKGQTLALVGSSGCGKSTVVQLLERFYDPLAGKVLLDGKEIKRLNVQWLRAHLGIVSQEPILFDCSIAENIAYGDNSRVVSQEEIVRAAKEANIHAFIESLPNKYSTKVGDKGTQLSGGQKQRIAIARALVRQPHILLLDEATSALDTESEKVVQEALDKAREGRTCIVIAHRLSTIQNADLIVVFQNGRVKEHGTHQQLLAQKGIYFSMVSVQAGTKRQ
Chain of NR2B (Q00960 27-1482, other chains not shown): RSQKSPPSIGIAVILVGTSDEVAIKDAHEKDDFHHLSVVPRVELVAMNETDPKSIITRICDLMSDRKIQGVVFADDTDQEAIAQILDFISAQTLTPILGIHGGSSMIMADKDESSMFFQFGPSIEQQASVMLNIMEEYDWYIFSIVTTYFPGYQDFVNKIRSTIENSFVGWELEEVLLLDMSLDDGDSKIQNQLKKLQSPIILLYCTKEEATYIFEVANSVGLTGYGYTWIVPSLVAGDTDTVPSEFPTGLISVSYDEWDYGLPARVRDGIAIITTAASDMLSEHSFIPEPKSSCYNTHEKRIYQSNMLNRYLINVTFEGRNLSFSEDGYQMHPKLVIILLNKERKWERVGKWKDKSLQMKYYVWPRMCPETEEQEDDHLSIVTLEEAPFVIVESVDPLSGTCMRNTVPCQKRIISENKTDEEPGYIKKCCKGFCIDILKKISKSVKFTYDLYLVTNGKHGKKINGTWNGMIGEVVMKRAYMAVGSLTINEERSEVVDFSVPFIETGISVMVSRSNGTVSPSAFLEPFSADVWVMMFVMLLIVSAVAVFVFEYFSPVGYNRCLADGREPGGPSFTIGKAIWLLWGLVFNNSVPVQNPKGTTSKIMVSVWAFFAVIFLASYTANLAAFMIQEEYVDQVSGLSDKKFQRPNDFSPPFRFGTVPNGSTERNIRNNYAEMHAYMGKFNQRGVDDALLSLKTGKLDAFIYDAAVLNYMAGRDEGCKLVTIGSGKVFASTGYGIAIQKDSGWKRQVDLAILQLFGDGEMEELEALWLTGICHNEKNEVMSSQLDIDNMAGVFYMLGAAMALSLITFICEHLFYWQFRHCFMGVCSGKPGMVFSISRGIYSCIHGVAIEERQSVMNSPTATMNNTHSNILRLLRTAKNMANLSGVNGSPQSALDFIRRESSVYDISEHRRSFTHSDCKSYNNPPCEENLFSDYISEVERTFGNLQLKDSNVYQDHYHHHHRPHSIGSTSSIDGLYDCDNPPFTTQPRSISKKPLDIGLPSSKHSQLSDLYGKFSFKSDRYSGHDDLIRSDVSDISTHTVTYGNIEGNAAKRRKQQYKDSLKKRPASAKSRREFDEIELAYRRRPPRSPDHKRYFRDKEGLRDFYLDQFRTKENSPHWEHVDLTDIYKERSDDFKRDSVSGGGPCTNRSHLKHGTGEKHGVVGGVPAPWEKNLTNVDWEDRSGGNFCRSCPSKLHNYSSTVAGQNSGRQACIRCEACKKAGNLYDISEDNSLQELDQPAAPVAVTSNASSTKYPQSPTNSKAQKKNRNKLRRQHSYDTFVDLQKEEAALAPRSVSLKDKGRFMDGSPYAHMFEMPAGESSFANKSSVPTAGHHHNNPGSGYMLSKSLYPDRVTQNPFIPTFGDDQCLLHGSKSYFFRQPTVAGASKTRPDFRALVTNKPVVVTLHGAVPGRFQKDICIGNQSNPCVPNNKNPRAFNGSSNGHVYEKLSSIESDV

Row | IC50 [1] | efflux ratio at 120 min, 10 μM [2] | Compound
1 | 100 nM | 3.3 | O=C1Cc2cc([C@@H](O)CN3C[C@H]4C[C@H](Oc5ccccc5)C[C@@]4(O)C3)ccc2N1 (single isomer, unassigned) [Example 2A]
2 | 520 nM | 1.01 | O=C1CCc2cc([C@@H](O)CN3C[C@H]4C[C@H](Oc5ccccc5F)C[C@@]4(O)C3)cc(F)c2N1 (single isomer, unassigned) [Example 6A]
3 | 2.4 nM | 1.29 | O=C1CCc2cc([C@H](O)CN3C[C@@H]4C[C@@H](Oc5ccccc5F)C[C@]4(O)C3)cc(F)c2N1 (single isomer, unassigned) [Example 6D]
4 | 14 nM | 2.73 | O=C1CCCc2cc([C@@H](O)CN3C[C@H]4C[C@H](Oc5ccccc5)C[C@@]4(O)C3)ccc2N1 (single isomer, unassigned) [Example 7A]
5 | 0.57 nM | 3.46 | O=c1ccc2cc([C@H](O)CN3C[C@H]4C[C@H](Oc5ccccc5)C[C@@]4(O)C3)ccc2[nH]1 (single isomer, unassigned) [Example 8B]
6 | 2.7 nM | 1.06 | O=C1CCc2c(ccc([C@@H](O)CN3C[C@H]4C[C@H](Oc5ccccc5)C[C@@]4(O)C3)c2F)N1 (single isomer, unassigned) [Example 9A]
7 | 4.1 nM | 1.4 | O=C1CCc2c(ccc([C@H](O)CN3C[C@H]4C[C@H](Oc5ccccc5)C[C@@]4(O)C3)c2F)N1 (single isomer, unassigned) [Example 9B]
8 | 0.56 nM | 2.49 | O=C1CCc2cc([C@H](O)CN3C[C@H]4C[C@H](Oc5ccccc5)C[C@@]4(O)C3)c(F)cc2N1 (single isomer, unassigned) [Example 10B]
9 | 1.9 nM | 1.74 | CC1(C)Cc2cc([C@@H](O)CN3C[C@H]4C[C@H](Oc5ccccc5)C[C@@]4(O)C3)ccc2NC1=O (single isomer, unassigned) [Example 11A]
10 | 0.3 nM | 2.81 | O=C1Nc2ccc([C@@H](O)CN3C[C@H]4C[C@H](Oc5ccccc5F)C[C@@]4(O)C3)cc2CCO1 (single isomer, unassigned) [Example 12A]
11 | 86 nM | 1.22 | O=C1COc2cc([C@@H](O)CN3C[C@H]4C[C@H](Oc5ccccc5)C[C@@]4(O)C3)cc(F)c2N1 (single isomer, unassigned) [Example 13A]
12 | 57 nM | 1.11 | O=C1COc2cc([C@H](O)CN3C[C@H]4C[C@H](Oc5ccccc5)C[C@@]4(O)C3)cc(F)c2N1 (single isomer, unassigned) [Example 13B]
13 | 0.011 nM | 1.51 | O=C1Nc2ccc([C@@H](O)CN3C[C@H]4C[C@H](Oc5ccccc5)C[C@@]4(O)C3)cc2CS1 (single isomer, unassigned) [Example 14A]
14 | 0.0015 nM | 1.6 | O=C1Nc2ccc([C@@H](O)CN3C[C@H]4C[C@H](Oc5ccccc5F)C[C@@]4(O)C3)cc2CS1 (single isomer, unassigned) [Example 15A]
15 | 0.0019 nM | 1.92 | O=C1Nc2ccc([C@H](O)CN3C[C@H]4C[C@H](Oc5ccccc5F)C[C@@]4(O)C3)cc2CS1 (single isomer, unassigned) [Example 15B]
16 | 0.049 nM | 2.06 | O=c1[nH]c2ccc([C@H](O)CN3C[C@H]4C[C@H](Oc5ccccc5)C[C@@]4(O)C3)cc2s1 (single isomer, unassigned) [Example 17B]
17 | < 0.0021 nM | 1.61 | O=c1[nH]c2ccc([C@@H](O)CN3C[C@H]4C[C@H](Oc5ccccc5F)C[C@@]4(O)C3)cc2s1 (single isomer, unassigned) [Example 18A]
18 | 0.33 nM | 3.32 | O=c1[nH]c2c(F)cc([C@H](O)CN3C[C@H]4C[C@H](Oc5ccccc5)C[C@@]4(O)C3)cc2cc1F (single isomer, unassigned) [Example 20B]
19 | 1.4 nM | 1.43 | O=C1CCc2cc([C@@H](O)CN3C[C@@H]4C[C@@H](Oc5ccc(F)cc5)C[C@]4(O)C3)ccc2N1 (single isomer, unassigned) [Example 22C]
20 | 1.4 nM | 3.75 | O=C1CCc2cc([C@@H](O)CN3C[C@@H]4C[C@@H](Oc5cccc(F)c5)C[C@]4(O)C3)ccc2N1 (single isomer, unassigned) [Example 23C]
21 | 1.3 nM | 3.28 | O=C1CCc2cc([C@H](O)CN3C[C@@H]4C[C@@H](Oc5cccc(F)c5)C[C@]4(O)C3)ccc2N1 (single isomer, unassigned) [Example 23D]
22 | 0.056 nM | 2.64 | O=C1CCc2cc([C@H](O)CN3C[C@@H]4C[C@@H](Oc5cccc(F)c5F)C[C@]4(O)C3)ccc2N1 (single isomer, unassigned) [Example 24D]
23 | 0.24 nM | 2.74 | O=C1CCc2cc([C@@H](O)CN3C[C@@H]4C[C@@H](Oc5ccc(F)cc5F)C[C@]4(O)C3)ccc2N1 (single isomer, unassigned) [Example 25C]
24 | 1.3 nM | 3.27 | O=C1CCc2cc([C@@H](O)CN3C[C@@H]4C[C@@H](Oc5cc(F)ccc5F)C[C@]4(O)C3)ccc2N1 (single isomer, unassigned) [Example 26C]
25 | 1.9 nM | 2.52 | O=C1CCc2cc([C@H](O)CN3C[C@@H]4C[C@@H](Oc5cc(F)ccc5F)C[C@]4(O)C3)ccc2N1 (single isomer, unassigned) [Example 26D]
26 | 1.7 nM | 1.52 | O=C1CCc2cc([C@@H](O)CN3C[C@@H]4C[C@@H](Oc5c(F)cccc5F)C[C@]4(O)C3)ccc2N1 (single isomer, unassigned) [Example 27C]
27 | 1.4 nM | 2.05 | O=C1CCc2cc([C@H](O)CN3C[C@@H]4C[C@@H](Oc5c(F)cccc5F)C[C@]4(O)C3)ccc2N1 (single isomer, unassigned) [Example 27D]
28 | 1.7 nM | 3.18 | O=C1Nc2ccc([C@H](O)CN3C[C@H]4C[C@H](Oc5ccccc5)C[C@@]4(O)C3)cc2CO1 (single isomer, unassigned) [Example 28B]
29 | 130 nM | 3.23 | O=C1CCc2cc([C@@H](O)CN3C[C@H]4C[C@H](Oc5ccccc5F)[C@H](O)[C@@]4(O)C3)cc(F)c2N1 (single isomer, unassigned) [Example 29A]
